Results published in paper PMC3774597 (Journal of biomolecular screening, 2012).

What was measured:
[1] = biological target: T1, isoleucyl-tRNA synthetase (IleRS) (Trypanosoma brucei, UniProt Q38A55); assay: malachite green aminoacylation assay coupled to pyrophosphatase, dose response; type: biochemical
T1 sequence (Q38A55 67-1143): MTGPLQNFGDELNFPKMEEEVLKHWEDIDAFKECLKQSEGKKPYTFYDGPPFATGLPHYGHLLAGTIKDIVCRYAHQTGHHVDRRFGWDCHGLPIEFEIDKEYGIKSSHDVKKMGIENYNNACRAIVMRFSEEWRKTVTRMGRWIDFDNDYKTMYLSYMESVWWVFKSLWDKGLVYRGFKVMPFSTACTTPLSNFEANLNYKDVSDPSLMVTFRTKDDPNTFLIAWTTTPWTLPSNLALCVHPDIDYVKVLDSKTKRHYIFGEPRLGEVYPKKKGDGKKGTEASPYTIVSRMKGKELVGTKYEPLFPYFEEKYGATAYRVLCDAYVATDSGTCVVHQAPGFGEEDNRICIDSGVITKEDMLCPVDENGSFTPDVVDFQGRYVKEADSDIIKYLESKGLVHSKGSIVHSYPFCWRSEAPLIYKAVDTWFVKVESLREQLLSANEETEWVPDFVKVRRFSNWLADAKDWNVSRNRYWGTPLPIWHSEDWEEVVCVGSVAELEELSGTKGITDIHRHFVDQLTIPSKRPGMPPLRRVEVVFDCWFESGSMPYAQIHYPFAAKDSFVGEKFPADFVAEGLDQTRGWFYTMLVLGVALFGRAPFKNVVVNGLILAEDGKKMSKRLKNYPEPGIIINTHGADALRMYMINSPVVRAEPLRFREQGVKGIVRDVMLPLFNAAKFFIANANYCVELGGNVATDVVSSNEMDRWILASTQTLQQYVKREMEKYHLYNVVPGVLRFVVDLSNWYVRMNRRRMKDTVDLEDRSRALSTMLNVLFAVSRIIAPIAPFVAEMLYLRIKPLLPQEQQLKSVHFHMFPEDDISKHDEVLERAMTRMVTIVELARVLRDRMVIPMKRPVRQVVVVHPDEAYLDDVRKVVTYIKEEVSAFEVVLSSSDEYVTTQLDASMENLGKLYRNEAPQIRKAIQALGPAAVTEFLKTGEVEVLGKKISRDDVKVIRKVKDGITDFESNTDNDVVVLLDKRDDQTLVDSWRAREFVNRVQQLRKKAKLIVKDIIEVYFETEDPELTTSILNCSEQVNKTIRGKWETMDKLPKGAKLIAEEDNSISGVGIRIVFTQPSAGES

[2] = substrate: CC[C@H](C)[C@H](N)C(=O)O; assay: Michaelis-Menten kinetics; type: biochemical, Trypanosoma brucei

Question: With `CC(C)(C)[Si](C)(C)OCC1OC(n2cnc3c(N)ncnc32)C(O)C1O` (centres unmarked) [NSC616354] as the molecule, how does the IC50 [1] read?
Answer: 600 nM

B1: isoleucyl-tRNA synthetase (IleRS) (Trypanosoma brucei brucei TREU927) (protein)
chain: MTGPLQNFGDELNFPKMEEEVLKHWEDIDAFKECLKQSEGKKPYTFYDGPPFATGLPHYGHLLAGTIKDIVCRYAHQTGHHVDRRFGWDCHGLPIEFEIDKEYGIKSSHDVKKMGIENYNNACRAIVMRFSEEWRKTVTRMGRWIDFDNDYKTMYLSYMESVWWVFKSLWDKGLVYRGFKVMPFSTACTTPLSNFEANLNYKDVSDPSLMVTFRTKDDPNTFLIAWTTTPWTLPSNLALCVHPDIDYVKVLDSKTKRHYIFGEPRLGEVYPKKKGDGKKGTEASPYTIVSRMKGKELVGTKYEPLFPYFEEKYGATAYRVLCDAYVATDSGTCVVHQAPGFGEEDNRICIDSGVITKEDMLCPVDENGSFTPDVVDFQGRYVKEADSDIIKYLESKGLVHSKGSIVHSYPFCWRSEAPLIYKAVDTWFVKVESLREQLLSANEETEWVPDFVKVRRFSNWLADAKDWNVSRNRYWGTPLPIWHSEDWEEVVCVGSVAELEELSGTKGITDIHRHFVDQLTIPSKRPGMPPLRRVEVVFDCWFESGSMPYAQIHYPFAAKDSFVGEKFPADFVAEGLDQTRGWFYTMLVLGVALFGRAPFKNVVVNGLILAEDGKKMSKRLKNYPEPGIIINTHGADALRMYMINSPVVRAEPLRFREQGVKGIVRDVMLPLFNAAKFFIANANYCVELGGNVATDVVSSNEMDRWILASTQTLQQYVKREMEKYHLYNVVPGVLRFVVDLSNWYVRMNRRRMKDTVDLEDRSRALSTMLNVLFAVSRIIAPIAPFVAEMLYLRIKPLLPQEQQLKSVHFHMFPEDDISKHDEVLERAMTRMVTIVELARVLRDRMVIPMKRPVRQVVVVHPDEAYLDDVRKVVTYIKEEVSAFEVVLSSSDEYVTTQLDASMENLGKLYRNEAPQIRKAIQALGPAAVTEFLKTGEVEVLGKKISRDDVKVIRKVKDGITDFESNTDNDVVVLLDKRDDQTLVDSWRAREFVNRVQQLRKKAKLIVKDIIEVYFETEDPELTTSILNCSEQVNKTIRGKWETMDKLPKGAKLIAEEDNSISGVGIRIVFTQPSAGES
Question: With B1 as the molecule, how does the Km [2] read?
Answer: 39.7 µM
